Data reported in US12414559B2, “Mixtures and compositions comprising 5-fluoro-4-imino-3-methyl-1-tosyl-3,4-dihydropyrimidin-2-one, and methods of use thereof” (Adama Makhteshim Ltd., priority 2018, dated 2025).

Assay: Chemical stability on storage: concentration / degradation of compound of Formula I in the composition
Assay type: physicochemical
Conditions: after 8 weeks of storage at 40° C.
Text: As used herein, the term “stable” when used in connection with chemical stability, e.g, chemically stable, means that the composition meets the chemical stability standards set forth by the Food and Agriculture Organization of the United Nations (FAO) in the Manual on Development and Use of FAO and WHO Specification for Pesticides (First Edition—Third Revision) (the “FAO/WHO Manual”) (available at http://www.fao.gov/agriculture/crops/thematic-sitemap/theme/pests/jmps/manual/en/), the entire content of which is hereby incorporate by reference into the subject application. […] The amount of degradation permitted before the degradation is considered to be significant depends on the concentration of the active ingredients in the composition.
The physical and chemical stability of composition of Example were tested under various conditions including CIPAC conditions.

Compound: Cc1ccc(S(=O)(=O)n2cc(F)c(=N)n(C)c2=O)cc1 [compound of Formula I, 5-fluoro-4-imino-3-methyl-1-tosyl-3,4-dihydropyrimidin-2(1H)-one]
- degradation of the compound of Formula I (with Attagel 50 (0.5% by weight) and Bentone SD-1 (0.5% by weight)): 4%
- degradation of the compound of Formula I (without Attagel 50 and Bentone SD-1): 7-8%
